Test results from DBAASP.
≈ marks a conversion by molar mass, not a printed value. Where “and” joins values, the source holds several entries; their conditions need not be identical. Equal values may be shown once. Blank lines part the entries; values can stand above or below the compound they belong to.

How the values were obtained:
Assay in all cases: ≥ marks a high value that may be exact or a test limit, other limits are often not marked, values filed in µg/mL are converted to µM
Streptococcus agalactiae = system: Streptococcus agalactiae
[1] = system: Staphylococcus epidermidis ATCC 12228
Bacillus megaterium Bm11 = system: Bacillus megaterium Bm11
[2] = system: Escherichia coli KCTC 1682
[3] = system: Staphylococcus aureus KCTC 1621
Escherichia coli ML-35 = system: Escherichia coli ML-35
Staphylococcus aureus = system: Staphylococcus aureus
[4] = system: Staphylococcus epidermidis KCTC 1917
[5] = system: Serratia marcescens ATCC 8100
[6] = system: Escherichia coli O18:K1:H7 Bort
[7] = system: Escherichia coli ATCC 25922
[8] = system: Salmonella typhimurium KCTC 1926
[9] = system: Staphylococcus epidermidis ATCC 35984
[10] = system: Pseudomonas aeruginosa KCTC 1637
[11] = system: Salmonella enterica subsp. enterica serovar Typhimurium ATCC 14028
Serratia marcescens = system: Serratia marcescens
Candida albicans = system: Candida albicans
Enterococcus faecium = system: Enterococcus faecium
[12] = system: Staphylococcus aureus ATCC 25923
Escherichia coli D21 = system: Escherichia coli D21
[13] = system: Pseudomonas aeruginosa ATCC 27853
[14] = system: Bacillus subtilis KCTC 3068
Cryptococcus neoformans = system: Cryptococcus neoformans
[15] = system: Staphylococcus aureus Cowan 1
[16] = system: Candida albicans ATCC 37092
[17] = system: Staphylococcus aureus ATCC 29213
Aeromonas hydrophila = system: Aeromonas hydrophila
Edwardsiella tarda = system: Edwardsiella tarda
Escherichia coli = system: Escherichia coli
Bacillus subtilis = system: Bacillus subtilis
Pseudomonas aeruginosa = system: Pseudomonas aeruginosa
Escherichia coli W160-37 = system: Escherichia coli W160-37

MIC (Streptococcus agalactiae): 1 µM (≈ 2.34 µg/mL) | MIC [1]: 1 µM (≈ 2.34 µg/mL) | MIC (Bacillus megaterium Bm11): 2 µM (≈ 4.68 µg/mL) | MIC [2]: 4 µM and 2.83 µM | MIC [3]: 4 µM and 2.83 µM | MIC (Escherichia coli ML-35): 4 µM (≈ 9.37 µg/mL) | MIC (Staphylococcus aureus): 4 µM (≈ 9.37 µg/mL) | MIC [4]: 4 µM (≈ 9.37 µg/mL) | MIC [5]: 2 µM (≈ 4.68 µg/mL) | MIC [6]: 8 µM (≈ 18.7 µg/mL) | MIC [7]: 2 µM (≈ 4.68 µg/mL) | MIC [8]: 2 µM (≈ 4.68 µg/mL) | MIC [9]: 2 µM (≈ 4.68 µg/mL) | MIC [10]: 4 µM (≈ 9.37 µg/mL) | MIC [11]: 4 µM (≈ 9.37 µg/mL) | MIC (Serratia marcescens): 4 µM (≈ 9.37 µg/mL) | MIC (Candida albicans): 16 µM (≈ 37.5 µg/mL) | MIC (Enterococcus faecium): 8 µM (≈ 18.7 µg/mL) | MIC [12]: 2 µM and 4 µM | MIC (Escherichia coli D21): 4 µM (≈ 9.37 µg/mL) | MIC [13]: 2 µM (≈ 4.68 µg/mL) | MIC [14]: 4 µM (≈ 9.37 µg/mL) | MIC (Cryptococcus neoformans): 4 µM (≈ 9.37 µg/mL) | MIC [15]: 2 µM (≈ 4.68 µg/mL)
Structure (SMILES): CC(C)C[C@H](NC(=O)[C@H](CCCCN)NC(=O)[C@H](CCCCN)NC(=O)[C@H](Cc1ccccc1)NC(=O)[C@H](CC(C)C)NC(=O)[C@H](CCCCN)NC(=O)[C@H](CCCCN)NC(=O)[C@H](Cc1ccccc1)NC(=O)[C@H](CCCCN)NC(=O)[C@H](CCCCN)NC(=O)[C@H](CCCN=C(N)N)NC(=O)[C@H](Cc1ccccc1)NC(=O)[C@H](CCCN=C(N)N)NC(=O)[C@H](CCCCN)NC(=O)[C@H](Cc1ccccc1)NC(=O)[C@H](CCCN=C(N)N)NC(=O)CN)C(=O)N[C@@H](CO)C(N)=O [GRFKRFRKKFKKLFKKLS]

MIC [16]: ≥ 500 µM | MIC [7]: 114 µM (≈ 218 µg/mL) | MIC [17]: > 500 µM
Structure (SMILES): CC(C)C[C@H](NC(=O)[C@@H](N)CCCN=C(N)N)C(=O)N1CCC[C@H]1C(=O)N[C@@H](CCCN=C(N)N)C(=O)N1CCC[C@H]1C(=O)N[C@@H](CCCN=C(N)N)C(=O)N1CCC[C@H]1C(=O)N[C@@H](CCCN=C(N)N)C(=O)N1CCC[C@H]1C(=O)N[C@@H](CC(C)C)C(=O)N1CCC[C@H]1C(=O)N[C@@H](Cc1ccccc1)C(=O)N1CCC[C@H]1C(=O)N[C@@H](CCCN=C(N)N)C(=O)N1CCC[C@H]1C(=O)NCC(=O)O [RLPRPRPRPLPFPRPG]

MIC (Aeromonas hydrophila): ≥ 160 µM | MIC (Edwardsiella tarda): ≥ 160 µM | MIC (Staphylococcus aureus): 5 µM (≈ 12.6 µg/mL) | MIC (Candida albicans): 20 µM (≈ 50.5 µg/mL) | MIC (Escherichia coli): 6.7 µM (≈ 16.9 µg/mL) | MIC (Bacillus subtilis): 3 µM (≈ 7.58 µg/mL) | MIC (Pseudomonas aeruginosa): 35 µM (≈ 88.4 µg/mL)
Structure (SMILES): CC[C@H](C)[C@H](NC(=O)[C@H](CC(C)C)NC(=O)CNC(=O)[C@H](Cc1cnc[nH]1)NC(=O)[C@@H](NC(=O)[C@H](Cc1cnc[nH]1)NC(=O)[C@H](CCCCN)NC(=O)CNC(=O)[C@@H](NC(=O)[C@H](CO)NC(=O)[C@H](Cc1ccccc1)NC(=O)[C@H](CC(C)C)NC(=O)CNC(=O)CNC(=O)[C@@H](NC(=O)[C@@H](NC(=O)[C@H](Cc1cnc[nH]1)NC(=O)[C@H](Cc1cnc[nH]1)NC(=O)[C@@H](NC(=O)[C@@H](N)Cc1ccccc1)[C@@H](C)CC)[C@@H](C)CC)[C@@H](C)CC)C(C)C)[C@@H](C)CC)C(=O)N[C@@H](Cc1cnc[nH]1)C(=O)NCC(=O)N[C@@H](Cc1cnc[nH]1)C(=O)O [FIHHIIGGLFSVGKHIHGLIHGH]

MIC (Escherichia coli W160-37): 22 µM (≈ 48.9 µg/mL)
Structure (SMILES): CC[C@H](C)[C@H](NC(=O)[C@H](CC(N)=O)NC(=O)[C@@H](NC(=O)[C@@H](NC(=O)[C@H](CCCCN)NC(=O)[C@H](CCC(N)=O)NC(=O)[C@H](CCC(N)=O)NC(=O)[C@H](C)NC(=O)[C@H](CCC(=O)O)NC(=O)[C@H](CCC(=O)O)NC(=O)[C@@H](NC(=O)[C@H](CC(=O)O)NC(=O)[C@H](CCCCN)NC(=O)[C@H](CC(C)C)NC(C)=O)C(C)C)[C@@H](C)CC)[C@@H](C)CC)C(=O)N[C@H](C(=O)N[C@@H](CCCN=C(N)N)C(=O)N[C@@H](CCCN=C(N)N)C(=O)N[C@@H](CC(C)C)C(N)=O)[C@@H](C)CC [LKDVEEAQQKIINIIRRL]
